The text below walks through data of ChEMBL document CHEMBL1201862, “PubChem BioAssay data set” (2004).

Assay [1] is described as follows: THP-1 cell cytotoxicity, dose response, cytotoxicity control for non-replicating M. tuberculosis project (AID 489025). It counts as functional.
The nature of assay [2]: HepG2 cell cytotoxicity, dose response, cytotoxicity control for non-replicating M. tuberculosis project (AID 489018). It counts as functional. To be noted: Mycobacterium tuberculosis.
In assay [3] the target is T1, Ubiquitin-conjugating enzyme E2 N (Homo sapiens, UniProt P61088).
T1 sequence (P61088 whole entry): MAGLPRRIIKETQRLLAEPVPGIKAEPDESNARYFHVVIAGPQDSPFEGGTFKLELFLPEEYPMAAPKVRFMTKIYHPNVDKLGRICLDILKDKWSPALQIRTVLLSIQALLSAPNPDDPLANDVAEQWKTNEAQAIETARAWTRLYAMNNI
In kind it is functional.

Assay [4] in a line: Vero E6 cell cytotoxicity, dose response, cytotoxicity control for non-replicating M. tuberculosis project, secondary assay (AID 492998). In kind it is functional, VeroE6. To be noted: Vero C1008.
Assay [5] is described as follows: cells. It counts as functional.
Assay [6] deals with T2, Insulin-degrading enzyme (Homo sapiens, UniProt P14735).
T2 sequence (P14735 whole entry): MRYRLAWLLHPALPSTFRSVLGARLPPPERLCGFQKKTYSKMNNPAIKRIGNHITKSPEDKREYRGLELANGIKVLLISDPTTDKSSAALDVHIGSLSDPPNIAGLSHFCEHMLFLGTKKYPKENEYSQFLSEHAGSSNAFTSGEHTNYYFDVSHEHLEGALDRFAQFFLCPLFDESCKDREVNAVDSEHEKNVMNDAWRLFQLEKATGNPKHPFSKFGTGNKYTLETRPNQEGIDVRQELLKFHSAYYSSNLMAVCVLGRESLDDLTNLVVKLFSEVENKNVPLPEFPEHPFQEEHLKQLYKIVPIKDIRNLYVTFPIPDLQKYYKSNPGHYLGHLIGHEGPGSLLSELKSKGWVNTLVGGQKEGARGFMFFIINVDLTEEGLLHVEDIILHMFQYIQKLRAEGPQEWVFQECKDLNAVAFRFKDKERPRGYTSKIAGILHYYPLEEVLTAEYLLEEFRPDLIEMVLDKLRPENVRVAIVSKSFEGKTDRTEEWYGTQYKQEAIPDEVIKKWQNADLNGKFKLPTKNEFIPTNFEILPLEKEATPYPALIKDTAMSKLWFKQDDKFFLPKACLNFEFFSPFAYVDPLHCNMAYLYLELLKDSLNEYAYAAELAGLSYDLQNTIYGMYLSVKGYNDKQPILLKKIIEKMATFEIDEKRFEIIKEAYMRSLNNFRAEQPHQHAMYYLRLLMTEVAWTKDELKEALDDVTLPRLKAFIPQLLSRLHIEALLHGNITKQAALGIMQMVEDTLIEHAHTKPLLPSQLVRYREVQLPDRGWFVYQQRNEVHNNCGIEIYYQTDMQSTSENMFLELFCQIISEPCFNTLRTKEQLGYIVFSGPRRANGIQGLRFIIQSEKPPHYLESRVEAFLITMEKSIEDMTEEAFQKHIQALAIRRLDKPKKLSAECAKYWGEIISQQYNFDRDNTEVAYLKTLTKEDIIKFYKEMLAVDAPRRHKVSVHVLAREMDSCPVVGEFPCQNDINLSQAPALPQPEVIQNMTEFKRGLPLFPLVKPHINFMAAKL
Nature of the assay: activators of recombinant IDE enzyme, dose response, counter-screen for IDE activator project, biochemical, fluorescence polarization (AID 588681).

Assay [7] has as its target T2, Insulin-degrading enzyme. Nature of the assay: activators of endogenous IDE in HEK cells, dose response, cell-based, fluorescence polarization (AID 588439). In kind it is functional.
For assay [8], the system named is HEK293. Nature of the assay: HEK cell cytotoxicity by LDH release, dose response, cytotoxicity control for IDE activator project, fluorescence, HEK cells (AID 588440).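 Also: cytotoxicity by LDH release measuring loss of membrane integrity.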 It counts as functional, cell-based. To be noted: Homo sapiens.
Assay [9] relates to HEK293. Briefly: optical interference in Abeta FP readout, dose response, artefact control for IDE activator project, biochemical, fluorescence polarization (AID 588442). In kind it is functional, cell-based. To be noted: Homo sapiens.
The target in assay [10] is T3, Methionyl-tRNA synthetase, putative (Trypanosoma brucei brucei, UniProt Q38C91).
T3 sequence (Q38C91 whole entry): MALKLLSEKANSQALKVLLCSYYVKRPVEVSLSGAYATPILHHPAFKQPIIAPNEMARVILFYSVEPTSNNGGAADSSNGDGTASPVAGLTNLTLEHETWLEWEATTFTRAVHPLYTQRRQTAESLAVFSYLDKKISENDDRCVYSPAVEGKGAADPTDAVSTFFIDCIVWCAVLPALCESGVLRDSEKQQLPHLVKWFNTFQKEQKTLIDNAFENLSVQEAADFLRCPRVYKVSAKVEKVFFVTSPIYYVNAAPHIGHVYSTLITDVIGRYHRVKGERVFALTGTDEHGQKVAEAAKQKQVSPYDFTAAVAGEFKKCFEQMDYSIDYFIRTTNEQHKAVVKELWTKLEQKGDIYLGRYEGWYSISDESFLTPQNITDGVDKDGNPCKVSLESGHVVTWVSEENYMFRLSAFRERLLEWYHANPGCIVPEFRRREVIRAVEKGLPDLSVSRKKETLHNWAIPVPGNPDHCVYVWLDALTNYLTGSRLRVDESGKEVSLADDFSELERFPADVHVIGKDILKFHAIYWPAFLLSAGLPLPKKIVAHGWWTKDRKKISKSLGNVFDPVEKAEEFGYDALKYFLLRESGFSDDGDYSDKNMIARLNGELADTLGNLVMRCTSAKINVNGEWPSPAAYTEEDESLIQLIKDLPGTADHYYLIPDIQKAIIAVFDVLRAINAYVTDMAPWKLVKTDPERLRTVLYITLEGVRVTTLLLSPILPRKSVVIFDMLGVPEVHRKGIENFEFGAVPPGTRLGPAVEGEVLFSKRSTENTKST
It counts as functional, Trypanosoma brucei brucei strain 927/4 GUTat10.1.

A short description of assay [11]: Counterscreen for inhibitors of Trypanosoma brucei methionyl tRNA synthetase (MetRS): Luminescence-based cell-based high throughput dose response assay to identify compounds that are cytotoxic to Jurkat human T lymphocyte cells. It counts as functional.
For assay [12], the target named is T3, Methionyl-tRNA synthetase, putative. In kind it is functional, Trypanosoma brucei brucei strain 927/4 GUTat10.1. The source holds these as a separate data set.
A short description of assay [13]: Luminescence Cell-Based Dose Retest to Confirm Inhibitors of Cancer Stem Cells. [Related pubchem assays (depositor defined):AID2717, AID2721]. It counts as functional. To be noted: Homo sapiens.
Assay [14] deals with T4, Bcl-2-related protein A1 (Mus musculus, UniProt Q07440).
T4 sequence (Q07440 whole entry): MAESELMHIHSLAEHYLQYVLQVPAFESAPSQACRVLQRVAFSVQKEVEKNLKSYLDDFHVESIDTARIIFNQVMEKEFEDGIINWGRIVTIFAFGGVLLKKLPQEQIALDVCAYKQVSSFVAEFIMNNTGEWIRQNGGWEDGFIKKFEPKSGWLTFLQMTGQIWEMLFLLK
In kind it is functional.

The target in assay [15] is T1, Ubiquitin-conjugating enzyme E2 N. It counts as functional. This is another data set of the same source.

Each structure is given as a SMILES string. The source made the active and inactive calls.
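For AC50 in this document: cells exposed to compound for roughly 70 hours or longer before luminescence read.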

For the compound `Cc1c(CN2CCC(CO)(CCOc3ccccc3)CC2)[nH]c2ccc(Cl)cc12`, the CC50 in assay [1] is 17.9 µM (active); in [2] it was 15.1 µM (active); in [4], 16.8 µM (active). In addition, the IC50 in assay [3] was > 20 µM (inactive); in assay [5], 8.32 µM (active); in [8], 28.3 µM (inactive); in assay [10], 38.8 µM (inactive); in assay [11], 25.8 µM (inactive); in assay [12], 64.4 µM (inactive). The results for the EC50 in assay [6], in assay [7] and in assay [9] were > 54.7 µM (inactive), 15.9 µM (inactive) and > 54.7 µM (inactive), respectively.

`FC(F)(F)c1cc(CCN2CCNC[C@H]2Cc2cccc3ccccc23)cc(C(F)(F)F)c1`: the AC50 in [13] is 3.37 µM (active). Also, the IC50 in [14] was > 20 µM (inactive); in assay [3], 11.7 µM (active); in [15], 9.82 µM (active); in [8], 10.1 µM (inactive). Besides, the EC50 in assay [6] is > 54.7 µM (inactive); in assay [7], 11.1 µM (inactive); in [9], > 55.9 µM (inactive).
